Results as given in ChEMBL document CHEMBL3860091, “Synthesis and activity of newly designed aroxyalkyl or aroxyethoxyethyl derivatives of piperazine on the cardiovascular and the central nervous systems” (Bioorg Med Chem Lett, 2016).

Key:
[1] = target: T1, Adrenergic receptor alpha-1 (Rattus norvegicus, UniProt P15823+P23944+P43140); assay: Displacement of [3H]prazosin from alpha1 adrenergic receptor in rat brain cerebral cortex after 30 mins by microbeta scintillation counting method; assay type: tissue-based
T1 sequence (P15823 whole entry): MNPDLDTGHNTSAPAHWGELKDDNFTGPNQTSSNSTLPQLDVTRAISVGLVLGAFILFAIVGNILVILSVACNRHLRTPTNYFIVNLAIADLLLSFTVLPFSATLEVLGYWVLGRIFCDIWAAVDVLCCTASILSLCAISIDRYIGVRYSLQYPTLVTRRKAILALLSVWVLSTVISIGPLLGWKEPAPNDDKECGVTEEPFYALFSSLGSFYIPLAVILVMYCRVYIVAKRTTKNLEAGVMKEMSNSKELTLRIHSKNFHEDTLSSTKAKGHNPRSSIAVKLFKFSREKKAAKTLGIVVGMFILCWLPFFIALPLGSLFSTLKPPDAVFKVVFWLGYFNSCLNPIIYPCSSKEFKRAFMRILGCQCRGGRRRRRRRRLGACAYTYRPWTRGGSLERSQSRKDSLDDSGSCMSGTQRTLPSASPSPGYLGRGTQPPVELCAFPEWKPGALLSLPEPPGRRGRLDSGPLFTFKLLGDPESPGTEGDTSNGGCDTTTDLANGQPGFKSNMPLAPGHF
T1 sequence (P23944 whole entry): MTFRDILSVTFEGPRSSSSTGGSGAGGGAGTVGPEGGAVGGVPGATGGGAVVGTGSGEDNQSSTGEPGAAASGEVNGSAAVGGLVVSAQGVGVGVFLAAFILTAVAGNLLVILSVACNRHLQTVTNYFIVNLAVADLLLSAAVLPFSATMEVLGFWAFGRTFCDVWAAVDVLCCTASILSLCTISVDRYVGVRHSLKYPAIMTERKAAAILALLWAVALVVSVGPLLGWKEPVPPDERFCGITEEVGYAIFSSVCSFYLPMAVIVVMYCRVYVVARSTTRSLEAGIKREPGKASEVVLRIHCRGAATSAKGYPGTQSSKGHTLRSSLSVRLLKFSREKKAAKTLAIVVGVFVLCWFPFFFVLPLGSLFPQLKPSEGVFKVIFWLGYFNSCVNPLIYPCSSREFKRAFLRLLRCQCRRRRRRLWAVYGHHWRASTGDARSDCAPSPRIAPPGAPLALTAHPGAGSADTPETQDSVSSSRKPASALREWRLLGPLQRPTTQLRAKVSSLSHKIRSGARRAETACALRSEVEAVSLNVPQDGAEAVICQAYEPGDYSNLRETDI
T1 sequence (P43140 whole entry): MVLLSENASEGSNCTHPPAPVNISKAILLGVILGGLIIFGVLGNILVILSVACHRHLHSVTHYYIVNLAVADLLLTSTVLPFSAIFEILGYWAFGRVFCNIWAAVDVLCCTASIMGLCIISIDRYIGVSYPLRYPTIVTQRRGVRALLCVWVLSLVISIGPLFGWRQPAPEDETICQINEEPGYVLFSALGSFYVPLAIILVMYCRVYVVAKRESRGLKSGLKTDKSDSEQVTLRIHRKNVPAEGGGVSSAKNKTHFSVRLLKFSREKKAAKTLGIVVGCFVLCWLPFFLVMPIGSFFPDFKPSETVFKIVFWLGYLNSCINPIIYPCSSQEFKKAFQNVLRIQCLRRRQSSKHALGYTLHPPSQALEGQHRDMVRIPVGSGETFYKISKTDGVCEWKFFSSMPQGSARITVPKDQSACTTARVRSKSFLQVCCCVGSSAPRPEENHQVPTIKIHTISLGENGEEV

Rattus norvegicus [2] = species on record: Rattus norvegicus; assay: Selectivity ratio of Ki for rat brain cerebral cortex alpha2 adrenergic receptor to Ki for rat brain cerebral cortex alpha1 adrenergic receptor
[3] = target: T2, 5-hydroxytryptamine receptor 1A (Homo sapiens, UniProt P08908); assay: Displacement of [3H]8-OH-DPAT from human recombinant 5-HT1A receptor expressed in membranes after 60 mins by microbeta scintillation counting method
T2 sequence (P08908 whole entry): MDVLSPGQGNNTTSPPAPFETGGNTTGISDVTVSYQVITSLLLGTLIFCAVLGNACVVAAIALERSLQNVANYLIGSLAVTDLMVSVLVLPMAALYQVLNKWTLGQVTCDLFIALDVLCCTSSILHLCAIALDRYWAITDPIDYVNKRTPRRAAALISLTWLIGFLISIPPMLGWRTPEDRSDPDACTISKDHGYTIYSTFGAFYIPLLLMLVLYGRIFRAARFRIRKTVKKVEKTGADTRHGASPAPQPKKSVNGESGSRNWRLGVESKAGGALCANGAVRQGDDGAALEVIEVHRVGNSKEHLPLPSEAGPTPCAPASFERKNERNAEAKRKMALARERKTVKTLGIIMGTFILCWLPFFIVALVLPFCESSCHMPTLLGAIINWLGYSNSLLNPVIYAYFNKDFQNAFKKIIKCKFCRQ

[4] = target: Adrenergic receptor alpha-1 (Rattus norvegicus) (UniProt P15823+P23944+P43140); assay: Antagonist activity at alpha1 adrenergic receptor in Wistar rat aorta assessed as inhibition of naradrenaline-induced aortic contraction preincubated for 30 mins followed by naradrenaline stimulation for 3 hrs at 60 mins interval in presence of alpha2 adrenergic receptor blocker yohimbine and beta adrenergic receptor blocker propranolol
Rattus norvegicus [5] = assay: Hypotensive activity in normotensive anesthetized Wistar rat assessed as diastolic blood pressure at 1 mg/kg, iv measured 10 mins post dose (reference value: 81.6 to 115.2 mmHg); assay type: functional
Rattus norvegicus [6] = assay: Hypotensive activity in normotensive anesthetized Wistar rat assessed as systolic blood pressure at 1 mg/kg, iv measured 20 mins post dose (reference value: 107.4 to 148.3 mmHg); assay type: functional
Rattus norvegicus [7] = assay: Hypotensive activity in normotensive anesthetized Wistar rat assessed as diastolic blood pressure at 1 mg/kg, iv measured 30 mins post dose (reference value: 81.6 to 115.2 mmHg); assay type: functional
Rattus norvegicus [8] = assay: Hypotensive activity in normotensive anesthetized Wistar rat assessed as diastolic blood pressure at 0.5 mg/kg, iv measured 5 mins post dose (reference value: 81.6 to 115.2 mmHg); assay type: functional
Rattus norvegicus [9] = assay: Hypotensive activity in normotensive anesthetized Wistar rat assessed as systolic blood pressure at 0.5 mg/kg, iv measured 10 mins post dose (reference value: 107.4 to 148.3 mmHg); assay type: functional
Rattus norvegicus [10] = assay: Hypotensive activity in normotensive anesthetized Wistar rat assessed as systolic blood pressure at 0.5 mg/kg, iv measured 20 mins post dose (reference value: 107.4 to 148.3 mmHg); assay type: functional
Rattus norvegicus [11] = assay: Hypotensive activity in normotensive anesthetized Wistar rat assessed as diastolic blood pressure at 0.5 mg/kg, iv measured 20 mins post dose (reference value: 81.6 to 115.2 mmHg); assay type: functional
[12] = Antidepressant-like activity in albino Swiss (CD-1) mouse assessed as immobility time at 5 mg/kg, ip administered 30 mins prior to test measured for last 4 mins of 6 mins observation by forced swim test (reference value: 178.3 +/- 12.3 sec); assay type: functional, organism-based
Mus musculus = assay: Toxicity in albino Swiss (CD-1) mouse assessed as effect on spontaneous locomotor activity by measuring number of crossings at 5 mg/kg, ip administered 30 mins prior to test measured for last 4 mins of 6 mins observation (reference value: 191.5 to 225.4); assay type: organism-based; conditions: in vivo

Row | SMILES | Ki [1] [nM] | Ratio Ki (Rattus norvegicus [2]) | Ki [3] [nM] | inhibition [4] | pKb [4] | Activity (Rattus norvegicus [5]) [mmHg] | Activity (Rattus norvegicus [6]) [mmHg] | Activity (Rattus norvegicus [7]) [mmHg] | Activity (Rattus norvegicus [8]) [mmHg] | Activity (Rattus norvegicus [9]) [mmHg] | Activity (Rattus norvegicus [10]) [mmHg] | Activity (Rattus norvegicus [11]) [mmHg] | TIME [12] [h] | Activity (Mus musculus)
1 | Cc1cccc(OCCCN2CCN(c3ccccc3)CC2)c1C.Cl.Cl | 33 | 24.6 | 5.4 | Dose-dependent effect | 7.97 | 112.8 | 138 | 109 |  |  |  |  |  | 
2 | Cc1cccc(OCCN2CCN(c3ccccc3)CC2)c1C.Cl.Cl | 159 | 1.82 | 12.3 | Dose-dependent effect | 8.75 | 75 | 96 | 67.6 |  |  |  |  |  | 

The next molecules have a lower Ki [3] than those just listed; values first:

Row | Ki [1] [nM] | Ratio Ki (Rattus norvegicus [2]) | Ki [3] [nM] | inhibition [4] | pKb [4] | SMILES | Activity (Rattus norvegicus [5]) [mmHg] | Activity (Rattus norvegicus [6]) [mmHg] | Activity (Rattus norvegicus [7]) [mmHg] | Activity (Rattus norvegicus [8]) [mmHg] | Activity (Rattus norvegicus [9]) [mmHg] | Activity (Rattus norvegicus [10]) [mmHg] | Activity (Rattus norvegicus [11]) [mmHg] | TIME [12] [h] | Activity (Mus musculus)
3 | 59.6 | 8.48 | 4 | Dose-dependent effect | 8.37 | Cc1cccc(Cl)c1OCCCCN1CCN(c2ccccc2)CC1.Cl.Cl | 102.2 | 126.2 | 97.7 | 100.5 | 135.3 | 138 | 102.5 | 0.0416 | 152.4
4 | 28.5 | 31.3 | 5 | Dose-dependent effect | 8.76 | COc1ccccc1N1CCN(CCOCCOc2cccc(C)c2C)CC1.Cl.Cl | 106 | 130.4 | 105.6 |  |  |  |  | 0.0339 | 232.5
5 | 23.5 | 15.8 | 2 | Dose-dependent effect | 8.54 | COc1ccccc1N1CCN(CCCCOc2c(C)cccc2C)CC1.Cl | 105.2 | 124.3 | 102 | 102 | 122.7 | 121.7 | 99.8 |  | 
